Data as given in patent EP1096933B1, “USE OF AN INHIBITOR OF CYTOCHROME P450 OPTIONALLY COMBINED WITH AN ANTIFUNGAL AGENT FOR TREATING MYCOSES” (priority 1998, dated 2000).
Read-outs that look alike come from different tables or passages of the source.

Tests used:
Test in all cases: growth of strains streaked on Sabouraud agar containing the products
Assay type in all cases: cell-based
[1] = test system: Trichophyton mentagrophytes; settings: Tric.Mentagophytes, read-out: % DE CROISSANCE
Experimental: (§1) Ces molécules ont été incorporées dans un milieu gélosé dit de Sabouraud (peptone 10g/l, glucose 10 g/l, gomme agar 15 g/l).
(§2) Des souches de diverses espèces de champignons ont été ensemencées par stries par la méthode de Stires.
(§3) Le pourcentage de croissance a été mesuré au cours du temps, pour des périodes allant jusqu'à 21 jours, pour certaines des souches testées.
(§4) Les quantités de pipéronyl butoxyde, et de cyclopyroxolamine utilisées sont identiques et sont de 10 ou 20 µg/ml dans le cas de l'association entre ces deux composés.
(§5) Dans le cas de l'association entre le pipéronyl butoxyde et l'éconazole, elles sont respectivement de 10 ou 20 µg/ml de pipéronyl butoxyde et de 1 µg/ml d'éconazole.
(§6) Des souches appartenant aux espèces suivantes ont été testées: Microsporum canis, Trichophyton rubrum, Trichophyton interdigitale, Trichophyton mentagrophytes, Microsporum persicolor, Epidermophyton floccosum, Trichophyton violaceum et Trichophyton soudanense.
(§7) L'activité du pipéronyl butoxyde seul a été testée à diverses concentrations, comme indiqué dans le tableau 1 sur le milieu de Sabouraud, dépourvu de tout autre fongicide.

Microsporum persicolor = settings: Nannizzia persicolor, Micro.Persicolor, 10µg/ml each product, read-out: % DE CROISSANCE
Experimental: as §1, §2, §3, §4, §5, §6, §7

Trichophyton soudanense = settings: Tric.Soudanese, read-out: % DE CROISSANCE
Experimental: as §1, §2, §3, §4, §5, §6, §7

Trichophyton rubrum = settings: Tric.Rubrum, read-out: % DE CROISSANCE
Experimental: as §1, §2, §3, §4, §5, §6, §7

[2] = test system: Trichophyton interdigitale; settings: Tric.Interdigitale, read-out: % DE CROISSANCE
Experimental: as §1, §2, §3, §4, §5, §6, §7

Epidermophyton floccosum = settings: Epid.Flocosum, read-out: % DE CROISSANCE
Experimental: as §1, §2, §3, §4, §5, §6, §7

Microsporum canis = settings: read-out: % DE CROISSANCE
Experimental: as §1, §2, §3, §4, §5, §6, §7

Trichophyton violaceum = settings: Tric.Violaceum, read-out: % DE CROISSANCE
Experimental: as §1, §2, §3, §4, §5, §6, §7

[3] = 144 h, J6, 20µg/ml each product
[4] = 240 h, J10, 20µg/ml each product
[5] = 336 h, J14, 20µg/ml each product
[6] = 144 h, J6, 10µg/ml each product
[7] = 240 h, J10, 10µg/ml each product
[8] = 336 h, J14, 10µg/ml each product

`Cc1cc(C2CCCCC2)n(O)c(=O)c1` [Cyclopiroxolamine, cyclopiroxolamine] showed an activity at 20 µg/mL ([1]; 0 h, J0, 20µg/ml each product) of 0%, an activity at 20 µg/mL ([1]; 96 h, J4, 20µg/ml each product) of 5% and an activity at 20 µg/mL [1, 3] of 60%. For the same compound, the activity at 20 µg/mL [1, 4] was 100%, the activity at 20 µg/mL [1, 5] was 100% and the activity at 10 µg/mL (Microsporum persicolor; 0 h, J0) was 0%. For the same compound, the activity at 10 µg/mL (Microsporum persicolor; 96 h, J4) was 0%, the activity at 10 µg/mL (Microsporum persicolor; 144 h, J6) was 30% and the activity at 10 µg/mL (Microsporum persicolor; 240 h, J10) was 75%. For the same compound, the activity at 10 µg/mL (Microsporum persicolor; 336 h, J14) was 100%, the activity at 10 µg/mL (Trichophyton soudanense; 0 h, J0, 10µg/ml each product) was 0% and the activity at 10 µg/mL (Trichophyton soudanense; 96 h, J4, 10µg/ml each product) was 0%. The activity at 10 µg/mL (Trichophyton soudanense; [6]) was 0%, the activity at 10 µg/mL (Trichophyton soudanense; [7]) was 30% and the activity at 10 µg/mL (Trichophyton soudanense; [8]) was 60%. For the same compound, the activity at 20 µg/mL (Trichophyton rubrum; 0 h, J0, 20µg/ml each product) was 0%, the activity at 20 µg/mL (Trichophyton rubrum; 96 h, J4, 20µg/ml each product) was 0% and the activity at 20 µg/mL (Trichophyton rubrum; [3]) was 50%. It also gave an activity at 20 µg/mL (Trichophyton rubrum; [4]) of 80%, an activity at 20 µg/mL (Trichophyton rubrum; [5]) of 100% and an activity at 20 µg/mL ([2]; 0 h, J0, 20µg/ml each product) of 0%. It also gave an activity at 20 µg/mL ([2]; 96 h, J4, 20µg/ml each product) of 5%, an activity at 20 µg/mL [2, 3] of 10% and an activity at 20 µg/mL [2, 4] of 80%. It also gave an activity at 20 µg/mL [2, 5] of 90%, an activity at 10 µg/mL (Epidermophyton floccosum; 0 h, J0, 10µg/ml each product) of 0% and an activity at 10 µg/mL (Epidermophyton floccosum; 96 h, J4, 10µg/ml each product) of 0%. The activity at 10 µg/mL (Epidermophyton floccosum; [6]) was 0%, the activity at 10 µg/mL (Epidermophyton floccosum; [7]) was 85% and the activity at 10 µg/mL (Epidermophyton floccosum; [8]) was 100%. It also gave an activity at 20 µg/mL (Microsporum canis; 0 h) of 0%, an activity at 20 µg/mL (Microsporum canis; 96 h) of 5% and an activity at 20 µg/mL (Microsporum canis; 144 h) of 20%. The activity at 20 µg/mL (Microsporum canis; 240 h) was 60%, the activity at 20 µg/mL (Microsporum canis; 336 h) was 100% and the activity at 10 µg/mL (Trichophyton violaceum; 0 h, J0, 10µg/ml each product) was 0%. It also gave an activity at 10 µg/mL (Trichophyton violaceum; 96 h, J4, 10µg/ml each product) of 0%, an activity at 10 µg/mL (Trichophyton violaceum; [6]) of 40% and an activity at 10 µg/mL (Trichophyton violaceum; [7]) of 60%. It also gave an activity at 10 µg/mL (Trichophyton violaceum; [8]) of 100%.
